Results on six compounds are retold here after patent US12569512B2, “Heparan sulfate (HS) oligosaccharides effect in liver ischemia reperfusion injury” (The University of North Carolina at Chapel Hill, priority 2019, dated 2026).

One data set relates to liver IR injury in rats. The conditions noted are these: cited from earlier work.
Another data set deals with T1, HMGB1 (Mus musculus, UniProt P63158).
T1 construct: used to pull down endogenous HMGB1 from liver lysate; from tissue; host or cells: liver lysate
T1 sequence (P63158 1-215): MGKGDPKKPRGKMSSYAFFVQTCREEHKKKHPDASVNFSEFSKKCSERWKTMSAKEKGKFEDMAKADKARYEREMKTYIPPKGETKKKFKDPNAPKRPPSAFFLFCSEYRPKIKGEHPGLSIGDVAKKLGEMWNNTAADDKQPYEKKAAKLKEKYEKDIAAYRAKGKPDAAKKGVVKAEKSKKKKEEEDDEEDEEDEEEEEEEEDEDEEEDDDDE
Kind of data set: Affinity purification (pulldown) of HMGB1 from liver lysate with biotinylated oligosaccharides, Western analysis. Type of data set: binding. To be noted: biotinylated oligosaccharide 0.1 mM, Western blot. The method, then: The oligosaccharides were converted to biotinylated versions using the same method as described in PCT International Patent Application Serial No. PCT/US2018/059152. Briefly, 12-mers and 6-mer-AXa with a pNP tag (5-10 mg) and 0.5 mg Pd/C were dissolved in 20 mM NaOAc, pH 5.0 in a total volume of 4 ml. Reaction mixture was vacuumed and refilled with H2 three times. The reaction was then incubated at room temperature for 4 h. After that, it was filtered to remove charcoal. The filtered solution was adjusted to pH 8.5 using 500 mM Na2HPO4. Succinimidyl 6-azidohexanoate (20 molar equivalent of starting oligosaccharides) was added and incubated at 37° C. overnight. Reaction was purified by DEAE-HPLC column to generate azido tagged oligosaccharides. PBS (pH7.4) buffer was bubbled with N2 for 5 min to prepare the sample solution of 0.1 M CuSO4, 0.1 M Tris(3-hydroxypropyl-triazolylmethyl)amine (THPTA)(Sigma), 0.15 M sodium ascorbate, 0.01 M azido tagged oligosaccharides and 0.02 M biotin-PEG4-alkyne (Sigma). The mixture of […] and 80 μl CuSO4 was vortexed, then 160 μl sodium ascorbate, 200 μl azido tagged oligomers and 200 μl biotin-PEG4-alkyne was added and bubbled with N2 for 2 min, then incubated at 37° C. overnight. The reaction was purified by DEAE-HPLC column to generate biotinylated products. The biotinylated 12-mers and 6-mer-AXa products were confirmed by ESI-MS.
Briefly, liver lysate was prepared by snap freezing tissue in liquid nitrogen at the time of sacrifice. The tissue was mechanically homogenized in buffer containing 200 mM MES, 500 mM phosphate, and 1 mM EDTA at pH 6 followed by three rounds of freeze thawing. The lysed sample were centrifuged at 10,000× g for 15 min at 4° C. Biotinylated HS oligosaccharides (final concentration 0.1 mM) were mixed with 20 μl of fresh liver lysate (˜0.6 mg) in 100 mM NaCl 20 mM HEPES pH 7.2 and incubated overnight at 4° C. The purification and biotinylated HS bound complex where achieved using avidin-Sepharose and increasing concentration of NaCl washes. […]
For orientation: A western blot detects proteins with antibodies after separation by electrophoresis.

The next data set relates to T2, FXa (Homo sapiens).
T2 construct: purchased Enzyme Research Laboratories (FXa); Cutter Biologics (antithrombin)
As to the kind of experiment: Ex vivo plasma FXa activity of mice after liver IR. Type of data set: in vivo, mouse. The conditions noted are these: 1 mg/kg SC 30 min before ischemia; plasma after 6 h reperfusion; vs IR. The procedure: (§1) Assays were based on a previously published method. Briefly, human FXa (Enzyme Research Laboratories) was diluted to 50 U ml^−1 with PBS. The chromogenic substrate S-2765 (Diapharma) was diluted to 1 mg ml^−1 in water. For in vitro studies, fondaparinux (available under the trade name ARIXTRA) and 12-mer oligosaccharides were dissolved in PBS at various concentrations (0-131 nM). 16 μl of sample was incubated with 60 μl of […] antithrombin (Cutter Biologics) for 2 min at room temperature. Next, 100 μl of FXa was added and incubated for 4 min at room temperature. 30 μl of S-2765 substrate was added and the absorbance of the reaction mixture was measured at 405 nm continuously for 5 min. PBS serves as a control sample. The maximum slope for each sample was convert to percent FXa activity by dividing by the maximum slope for the control sample.
For ex vivo studies, mouse plasma collected after the 6 hour reperfusion period and assayed the same as described above.
Liver ischemia-reperfusion (IR) surgery was performed by the Animal Surgery Core Laboratory of the McAllister Heart Institute, University of North Carolina Chapel Hill, NC. The mouse experiments were approved by the UNC Animal Care and Use Committees and complied with National Institutes of Health guidelines. Male C57BL/6J mice, approximately 8 weeks old, were used in the IR surgeries. […]

Data set [1] has as its system T3, human FXa (Homo sapiens).
T3 construct: purchased Enzyme Research Laboratories (FXa); Cutter Biologics (antithrombin)
The conditions noted are these: as previously demonstrated [15]; cited from earlier work.

Data set [2] relates to liver IR injury mouse model. As to the kind of experiment: Liver ischemia-reperfusion (IR) injury mouse model: plasma markers and histology. Type of data set: in vivo. The conditions noted are these: 6 h reperfusion, vs IR; for plasma ALT / hepatic necrotic area in ischemic lobe (H&E): 1 mg/kg SC 30 min before 60 min ischemia; for neutrophil infiltration into ischemic liver (immunohistochemistry): 1 mg/kg SC. The procedure: Liver ischemia-reperfusion (IR) surgery was performed by the Animal Surgery Core Laboratory of the McAllister Heart Institute, University of North Carolina Chapel Hill, NC. The mouse experiments were approved by the UNC Animal Care and Use Committees and complied with National Institutes of Health guidelines. Male C57BL/6J mice, approximately 8 weeks old, were used in the IR surgeries. Mice received a subcutaneous (SC) injection of 1 mg/kg oligosaccharide or the equivalent volume of saline 30 minutes prior to the surgical procedure. For the combination treatment of 12-mer-3+6-mer-AXa, equal concentration of each oligosaccharide was combined into a single solution. Under ketamine/xylazine anesthesia, an abdominal midline incision was made to expose the portal vein. A clamp was placed on the portal vein and bile duct to three major liver lobes to cause a 70% hepatic ischemia. Visible blanching of the ischemic liver lobes confirmed correct placement of the clamp. A temporary stitch closure of the muscle and skin over the clamp was used to prevent dehydration during the ischemia phase. Mice stayed on a heating pad and under anesthesia during the ischemia phase (60 minutes). The clamp was removed after 60 minutes and the ischemia liver lobes regained their red color as blood began to reperfusion the tissue, an indicator of correct reperfusion occurring. The incisions were closed in two layers with 5-0 silk sutures and the mice returned to their active state (no anesthesia used during the reperfusion phase). After 6 hours, the mice were re-anaesthetized, blood was drawn via cardiac puncture and ischemia liver lobes were harvested for histology (fixed in 10% formalin).
Plasma ALT was measured using the ALT Infinity reagent (Thermo Fisher) following the manufacturer's instructions. Plasma TNF-α was measured using Mouse TNF-α DuoSet Kit (R&D Systems) according to the manufacturer's instructions. Plasma HMGB1 levels were determined using HMGB1 ELISA Kit (Tecan US) according to the manufacturer's instructions. Plasma syndecan-1 levels were determined using Mouse Syndecan-1 ELISA (CellSciences) according to manufacturer's instructions. Plasms IL-6 levels were determined using Mouse IL-6 ELISA (R&D Systems).
Ischemia liver tissues were fixed in 10% neutral buffered formalin for 24 hours at room temperature, paraffin-embedded, and sectioned. Liver sections (4 μm) were stained with hematoxylin-eosin (H&E) or immunostained with monoclonal antibodies anti-neutrophil (Abcam, Ab 2557, NIMP-R14) followed by goat anti-rat or goat anti-rabbit biotinylated secondary antibodies (Abcam). Embedding, sectioning and H&E staining were performed at the Animal Histopathology and Laboratory Medicine Core Facility at UNC Chapel Hill. H&E analyses were performed by the Translational Pathology Laboratory Core Facility at UNC Chapel Hill using Aperio ImageScope Software (Leica Biosystems, Concord, Canada). IHC images were captured using an HD camera attached to a bright field microscope (Leica DM 1000 LED, Leica Microsystems Inc., IL, USA) and were processed using ImageJ. For neutrophil quantitation, five 100× images were randomly selected for each sample and the average neutrophils/field were reported.
1 mg/kg of 18-mer or equal volume of sterile saline was administered by subcutaneous injection 30 minutes prior to start of the ischemia phase. Ischemia to 70% of the liver was caused by clamping the portal vein and bile duct for 60 minutes. After the clamp was removed, the reperfusion phase last 6 hours before the animals were sacrificed for collection of liver tissue and blood. For surgical controls, a sham operation was performed such that the animal experienced the same anesthesia, abdominal midline incision, and suturing as the IR mice (FIG. 11A).

Data set [3] has as its target T3, human FXa (Homo sapiens). Kind of data set: In vitro anti-FXa activity of oligosaccharides (chromogenic, with antithrombin). The data set is classed as biochemical. To be noted: for anti-FXa activity (anticoagulant activity): 0-131 nM. The procedure: as §1
The test system of a further data set is MPO. As to the kind of experiment: MPO activity in ischemic liver lysate after liver IR. The data set is classed as in vivo, mouse. The conditions noted are these: 1 mg/kg SC, 6 h reperfusion. The procedure:
Liver ischemia-reperfusion (IR) surgery was performed by the Animal Surgery Core Laboratory of the McAllister Heart Institute, University of North Carolina Chapel Hill, NC. The mouse experiments were approved by the UNC Animal Care and Use Committees and complied with National Institutes of Health guidelines. Male C57BL/6J mice, approximately 8 weeks old, were used in the IR surgeries. Mice received a subcutaneous (SC) injection of 1 mg/kg oligosaccharide or the equivalent volume of saline 30 minutes prior to the surgical procedure. For the combination treatment of 12-mer-3+6-mer-AXa, equal concentration of each oligosaccharide was combined into a single solution. Under ketamine/xylazine anesthesia, an abdominal midline incision was made to expose the portal vein. […]
Ischemia liver lobe was mechanically homogenized in 50 mM CTAB 50 mM potassium phosphate pH 6 at a ratio of 100 μl buffer per 10 mg tissue. […] Total protein concentration was measured by Bradford assay. 10 μl of liver lysate was incubated with 80 μl of 0.75 mM H2O2 and 110 μl of TMB (TMB liquid reagent, ready-to-use, Sigma) for 10 minutes at 37° C. with gentle agitation. The reaction was stopped by addition of 2.5 M H2SO4 and read at 450 nm. Activity (U/g protein) was calculated as absorbance of sample minus the absorbance of the blank divided by incubation time. […]

The conditions of data set [4]: kidney IR model; cited from earlier work.
The test system of the next data set is rat model. To be noted: elevated doses; cited from earlier work.

T3 sequence (P01008 33-464): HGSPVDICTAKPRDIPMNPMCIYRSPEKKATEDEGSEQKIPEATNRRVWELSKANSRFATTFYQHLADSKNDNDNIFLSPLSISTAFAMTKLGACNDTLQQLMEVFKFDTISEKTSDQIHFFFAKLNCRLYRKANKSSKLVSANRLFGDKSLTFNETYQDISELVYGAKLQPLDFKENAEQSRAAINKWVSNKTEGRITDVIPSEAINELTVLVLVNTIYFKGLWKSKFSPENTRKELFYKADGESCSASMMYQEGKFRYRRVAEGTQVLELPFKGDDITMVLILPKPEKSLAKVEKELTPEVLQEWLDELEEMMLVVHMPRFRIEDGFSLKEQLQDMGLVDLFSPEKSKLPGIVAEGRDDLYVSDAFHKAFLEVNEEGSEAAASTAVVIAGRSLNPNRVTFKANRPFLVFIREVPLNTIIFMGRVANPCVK
T2 sequence (P01008 33-464): as above

On to `CC(=N)N1CC[C@H](Oc2ccc([C@H](Cc3ccc4ccc(C(=N)N)cc4c3)C(=O)O)cc2)C1` [DX9065a], for which the “liver IR injury” value in the data set with liver IR injury in rats was “no protection”.

For “GlcNS6S-GlcA-GlcNS6S3S-IdoA2S-GlcNS6S-GlcA-pNP [6-mer-AXa]”, the “HMGB1 pulldown from liver lysate” value on HMGB1 is reported as “does not pull down HMGB1”. For the same compound, the “plasma FXa activity” value in the data set with FXa (Homo sapiens) is on record as “Anticoagulant levels are similar between both treatment groups”. Moreover, in the data set on human FXa (Homo sapiens) [1], the “anticoagulant activity through inhibition of FXa” value is on record as “has anticoagulant activity through inhibition of FXa”. Moreover, in data set [2], the “plasma ALT” value was “no statistical difference in the concentration of ALT”.

With “GlcNS6S-GlcA-GlcNS6S3S-IdoA2S-GlcNS6S-IdoA2S-GlcNS6S-IdoA2S-GlcNS6S-IdoA2S-GlcNS6S-GlcA-pNP [12-mer-1]”, 63 nM corresponded to half-maximal inhibition at human FXa (Homo sapiens) [3] (with antithrombin, substrate S-2765) (IC50). The “HMGB1 pulldown from liver lysate” value at HMGB1 is on record as “successfully pull down HMGB1”. For the same compound, in the data set with MPO, the “decrease of MPO activity compared to the IR group” value is given as 60%. For the same compound, the renal clearance result in [4] was “renal clearance impairment of 12-mer-1 was demonstrated”. Moreover, the “plasma FXa activity” value in the data set with FXa (Homo sapiens) is given as “significantly decreased FXa activity”. For the same compound, the toxicity entry in the data set with rat model is recorded as “no toxicity”. In addition, in data set [2], the “hepatic necrotic area in ischemic lobe (H&E)” value was “decreased hepatic necrosis”, the “plasma ALT” value was “significantly decreased plasma ALT” and the “neutrophil infiltration into ischemic liver (immunohistochemistry)” value was “decreased neutrophil infiltration”.

Regarding “GlcNS6S-GlcA-GlcNS6S-GlcA-GlcNS6S-GlcA-GlcNS6S-GlcA-GlcNS6S-GlcA-GlcNS6S-GlcA-pNP [12-mer-4]”, the “anti-FXa activity (anticoagulant activity)” value (from here on “anti-FXa activity”) in the data set with human FXa (Homo sapiens) [3] is “did not display anti-FXa activity”.

For the compound “GlcNS6S-GlcA-GlcNS6S-IdoA2S-GlcNS6S-IdoA2S-GlcNS6S-IdoA2S-GlcNS6S-IdoA2S-GlcNS6S-GlcA-pNP [12-mer-3]”, the “anti-FXa activity” value in the data set with human FXa (Homo sapiens) [3] is reported as “did not display anti-FXa activity”. Further, on HMGB1, the “HMGB1 pulldown from liver lysate” value was “successfully pull down HMGB1”. The MPO activity in the data set with MPO is 96.00 U/g protein. Further, in [2], the “hepatic necrotic area in ischemic lobe (H&E)” value is “not 12-mer-3 decreased ALT and necrosis”; the “plasma ALT” value is reported as “not 12-mer-3 decreased ALT”; the “neutrophil infiltration into ischemic liver (immunohistochemistry)” value was “did not”.

As to “GlcNS-GlcA-GlcNS-IdoA2S-GlcNS-IdoA2S-GlcNS-IdoA2S-GlcNS-IdoA2S-GlcNS-GlcA-pNP [12-mer-2]”, the “anti-FXa activity” value in the data set with human FXa (Homo sapiens) [3] is on record as “did not display anti-FXa activity”.

For orientation: IC50 means the concentration that gives 50% inhibition. A lower IC50 goes with greater potency in that assay.
